Reference: patent US5474763A, “Reduction of hair growth” (priority 1994, dated 1995)
Where two headings read alike, the source gives them in different places.

Key:
[1] = target: T1, ornithine aminotransferase (OAT) (Mesocricetus auratus, UniProt A0A1U7QEB0); assay: OAT activity assay in hair follicles (P5C formation, HPLC of DHQ); assay type: biochemical, hamster
T1 construct: Assays (including the initial assays) were conducted utilizing excised hamster flank organ follicles; from tissue; host or cells: hamster flank organ hair follicles, minced, sonicated and centrifuged; supernatant assayed
T1 sequence (A0A1U7QEB0 1-439): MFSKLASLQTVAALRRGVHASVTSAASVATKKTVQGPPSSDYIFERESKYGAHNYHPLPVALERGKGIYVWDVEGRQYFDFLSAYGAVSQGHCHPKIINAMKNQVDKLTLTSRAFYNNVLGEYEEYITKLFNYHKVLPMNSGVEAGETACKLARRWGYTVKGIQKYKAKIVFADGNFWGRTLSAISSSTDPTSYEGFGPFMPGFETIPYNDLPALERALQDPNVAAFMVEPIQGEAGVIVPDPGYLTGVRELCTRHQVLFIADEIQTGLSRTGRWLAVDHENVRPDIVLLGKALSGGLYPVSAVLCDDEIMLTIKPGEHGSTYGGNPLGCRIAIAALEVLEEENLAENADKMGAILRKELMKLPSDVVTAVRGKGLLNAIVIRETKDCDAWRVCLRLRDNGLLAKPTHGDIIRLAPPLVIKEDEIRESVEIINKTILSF
Procedure: The following assay for OAT activity based on the procedure of O'Donnell et al., Analytical Biochemistry 90, 41-46 (1978) was adapted for OAT measurements in hair follicles, and can be used to evaluate the effectiveness of OAT inhibitors in reducing OAT activity.
The product of OAT activity, pyrroline-5-carboxylic acid (P5C), was measured by reverse-phase HPLC analysis of dihydroquinazolium ion (DHQ). DHQ is a reaction product of PSC and o-aminobenzylaldehyde (OAB). The analysis was performed with a Waters 490 UV detector. The amount of DHQ formed was directly proportional to the concentration of P5C. The sensitivity of the Waters 490 UV detector had been determined to be above 100 picomoles of PSC injected and was reasonably linear.
Initial assays of flank organ follicle OAT activity were conducted employing saturating doses of ornithine (350 mM). The OAT mediated conversion of ornithine to P5C was monitored by measuring in vitro PSC formation, resulting in time and concentration dependent increases in PSC.
Assays (including the initial assays) were conducted utilizing excised hamster flank organ follicles. The excised hamster follicles were diluted in assay buffer (2 follicles/300 μl) and then were minced with scissors and homogenized with a sonicator. The resultant homogenate was centrifuged to obtain a cytosolic supernatant which was assayed for OAT. Samples were incubated for one hour with either Gabaculin, L-Canaline, or 5-FMOrn at 1 mM, 100 μM, 10 μM, and 1 μM concentrations. The concentration of P5C was then assayed.

flank organs hair growth = assay: Golden Syrian hamster assay (flank organ hair mass); assay type: in vivo; details: topical, thirteen applications; for Treated (hair mass, mean ± SEM): treated flank organ
Text: Male intact Golden Syrian hamsters are considered acceptable models for human beard hair growth in that they display oval shaped flank organs, one on each side, each about 8 mm. in major diameter, which grow thick black and coarse hair similar to human beard hair. These organs produce hair in response to androgens in the hamster. To evaluate the effectiveness of a particular OAT inhibitor, the flank organs of each of a group of hamsters are depilated by applying a thioglycolate based chemical depilatory (Surgex). To one organ of each animal 10-25 μl. of vehicle alone once a day is applied, while to the other organ of each animal an equal amount of vehicle containing an OAT inhibitor is applied. After thirteen applications (one application per day for five days a week), the flank organs are shaved and the amount of recovered hair (hair mass) from each is weighed. Percent-reduction of hair growth is calculated by subtracting the hair mass (mg) value of the test compound treated side from the hair mass value of the vehicle treated side; the delta value obtained is then divided by the hair mass value of the vehicle treated side, and the resultant number is multiplied by 100.
The above-described assay will be referred to herein as the "Golden Syrian hamster" assay. Preferred compositions provide an reduction in hair growth of at least about 35%, more preferably at least about 50%, and most preferably at least about 70% when tested in the Golden Syrian hamster assay.
The vehicle used in the compositions tested was 68% deionized water, 16% absolute ethanol, 5% propylene glycol, 5% dipropylene glycol, 4% benzoyl alcohol, and 2% propylene carbonate.

[2] = 10 μM, one hour incubation, flank organ follicle supernatant
[3] = 100 μM, one hour incubation, flank organ follicle supernatant, read-out: Percent Inhibition (OAT)

SMILES: NC(CF)CCC(N)C(=O)O (stereo not shown) [5-FMOrn, 6-fluoro-2,5-diaminohexanoic acid]
- nm P5C formed/fol/1 hr ([1]; 1 μM, one hour incubation): 31.419 nm P5C formed/fol/1 hr
- Percent Inhibition (OAT) ([1]; 1 μM, one hour incubation, flank organ follicle supernatant): No OAT inhibition and none
- nm P5C formed/fol/1 hr ([1]; 10 μM, one hour incubation): 29.327 nm P5C formed/fol/1 hr
- Percent Inhibition (OAT) [1, 2]: No OAT inhibition and none
- nm P5C formed/fol/1 hr ([1]; 100 μM, one hour incubation): 19.562 nm P5C formed/fol/1 hr
- nm P5C formed/fol/1 hr ([1]; 1 mM, pH = 7.5, one hour incubation): 3.334 nm P5C formed/fol/1 hr
- Percent Inhibition (OAT) ([1]; 1 mM, pH = 7.5, one hour incubation, flank organ follicle supernatant): 83.036%
- inhibition at 100 µM ([1]; read-out: Percent Inhibition (OAT), 100 μM, one hour incubation, flank organ follicle supernatant): 0.471%
- inhibition at 1000 µM ([1]; read-out: Percent Inhibition (OAT), 1 mM, pH = 7.5, one hour incubation, flank organ follicle supernatant): 83%
- % Reduction (of hair growth, mean ± SEM) (flank organs hair growth; 5% in vehicle): 66.02 ± 6.30%
- Treated (hair mass, mean ± SEM) (flank organs hair growth; 5% in vehicle): .616 ± .15 mg
- % Reduction (of hair growth, mean ± SEM) (flank organs hair growth; 15% in vehicle): 84.55 ± 2.47%
- Treated (hair mass, mean ± SEM) (flank organs hair growth; 15% in vehicle): .322 ± .07 mg

SMILES: NOCC[C@H](N)C(=O)O [Canaline, (S)-2-amino-4-amino-oxybutyric acid]
- nm P5C formed/fol/1 hr ([1]; 1 μM, one hour incubation): 29.859 nm P5C formed/fol/1 hr
- Percent Inhibition (OAT) ([1]; 1 μM, one hour incubation, flank organ follicle supernatant, listed as L-Canaline): no inhibition and none
- nm P5C formed/fol/1 hr ([1]; 10 μM, one hour incubation): 24.096 nm P5C formed/fol/1 hr
- Percent Inhibition (OAT) ([1]; 10 μM, one hour incubation, flank organ follicle supernatant, listed as L-Canaline): no inhibition and none
- nm P5C formed/fol/1 hr ([1]; 100 μM, one hour incubation): 14.612 nm P5C formed/fol/1 hr
- Percent Inhibition (OAT) ([1]; 100 μM, one hour incubation, flank organ follicle supernatant, listed as L-Canaline): 25.653%
- inhibition at 100 µM [1, 3]: 25%
- inhibition at 1000 µM ([1]; 1 mM, pH = 7.5, one hour incubation, flank organ follicle supernatant, read-out: Percent Inhibition (OAT)): 100%
- % Reduction (of hair growth, mean ± SEM) (flank organs hair growth; 2% in vehicle): 20.99 ± 7.70%
- Treated (hair mass, mean ± SEM) (flank organs hair growth; 2% in vehicle): 1.553 ± .20 mg
- % Reduction (of hair growth, mean ± SEM) (flank organs hair growth; 10% in vehicle): 44.50 ± 7.40%
- Treated (hair mass, mean ± SEM) (flank organs hair growth; 10% in vehicle): .790 ± .11 mg

SMILES: NC1C=CC=C(C(=O)O)C1 (stereo not shown) [Gabaculin, 3-amino-2,3-dihydrobenzoic acid]
- nm P5C formed/fol/1 hr ([1]; 1 μM, one hour incubation): 19.637 nm P5C formed/fol/1 hr
- inhibition at 1 µM ([1]; 1 μM, one hour incubation, flank organ follicle supernatant, read-out: Percent Inhibition (OAT)): 0.089%
- nm P5C formed/fol/1 hr ([1]; 10 μM, one hour incubation): 5.057 nm P5C formed/fol/1 hr
- Percent Inhibition (OAT) [1, 2]: 74.268%
- inhibition at 10 µM ([1]; 10 μM, one hour incubation, flank organ follicle supernatant, read-out: Percent Inhibition (OAT)): 75%
- inhibition at 100 µM [1, 3]: 100%
- inhibition at 1000 µM ([1]; 1 mM, one hour incubation, flank organ follicle supernatant, read-out: Percent Inhibition (OAT)): 100%
- relative potency as OAT inhibitor ([1]; comparison of Gabaculin, L-Canaline and 5-FMOrn): most potent inhibitor
- % Reduction (of hair growth, mean ± SEM) (flank organs hair growth; 10% in vehicle): 43.06 ± 2.72%
- Treated (hair mass, mean ± SEM) (flank organs hair growth; 10% in vehicle): 1.365 ± .14 mg
- % Reduction (of hair growth, mean ± SEM) (flank organs hair growth; 25% in vehicle): 48.08 ± 5.00%
- Treated (hair mass, mean ± SEM) (flank organs hair growth; 25% in vehicle): 1.266 ± .11 mg
